Consider 27 molecules from patent US20220388990A1, “INHIBITORS OF CYCLIN-DEPENDENT KINASES” (Kinnate Biopharma Inc., priority 2019, published 2022).

Counter-ions that a name gives are not always drawn.

A word on the IC50: it is the concentration that inhibits the measured activity by half.

T1 sequence (Q9NYV4 whole entry): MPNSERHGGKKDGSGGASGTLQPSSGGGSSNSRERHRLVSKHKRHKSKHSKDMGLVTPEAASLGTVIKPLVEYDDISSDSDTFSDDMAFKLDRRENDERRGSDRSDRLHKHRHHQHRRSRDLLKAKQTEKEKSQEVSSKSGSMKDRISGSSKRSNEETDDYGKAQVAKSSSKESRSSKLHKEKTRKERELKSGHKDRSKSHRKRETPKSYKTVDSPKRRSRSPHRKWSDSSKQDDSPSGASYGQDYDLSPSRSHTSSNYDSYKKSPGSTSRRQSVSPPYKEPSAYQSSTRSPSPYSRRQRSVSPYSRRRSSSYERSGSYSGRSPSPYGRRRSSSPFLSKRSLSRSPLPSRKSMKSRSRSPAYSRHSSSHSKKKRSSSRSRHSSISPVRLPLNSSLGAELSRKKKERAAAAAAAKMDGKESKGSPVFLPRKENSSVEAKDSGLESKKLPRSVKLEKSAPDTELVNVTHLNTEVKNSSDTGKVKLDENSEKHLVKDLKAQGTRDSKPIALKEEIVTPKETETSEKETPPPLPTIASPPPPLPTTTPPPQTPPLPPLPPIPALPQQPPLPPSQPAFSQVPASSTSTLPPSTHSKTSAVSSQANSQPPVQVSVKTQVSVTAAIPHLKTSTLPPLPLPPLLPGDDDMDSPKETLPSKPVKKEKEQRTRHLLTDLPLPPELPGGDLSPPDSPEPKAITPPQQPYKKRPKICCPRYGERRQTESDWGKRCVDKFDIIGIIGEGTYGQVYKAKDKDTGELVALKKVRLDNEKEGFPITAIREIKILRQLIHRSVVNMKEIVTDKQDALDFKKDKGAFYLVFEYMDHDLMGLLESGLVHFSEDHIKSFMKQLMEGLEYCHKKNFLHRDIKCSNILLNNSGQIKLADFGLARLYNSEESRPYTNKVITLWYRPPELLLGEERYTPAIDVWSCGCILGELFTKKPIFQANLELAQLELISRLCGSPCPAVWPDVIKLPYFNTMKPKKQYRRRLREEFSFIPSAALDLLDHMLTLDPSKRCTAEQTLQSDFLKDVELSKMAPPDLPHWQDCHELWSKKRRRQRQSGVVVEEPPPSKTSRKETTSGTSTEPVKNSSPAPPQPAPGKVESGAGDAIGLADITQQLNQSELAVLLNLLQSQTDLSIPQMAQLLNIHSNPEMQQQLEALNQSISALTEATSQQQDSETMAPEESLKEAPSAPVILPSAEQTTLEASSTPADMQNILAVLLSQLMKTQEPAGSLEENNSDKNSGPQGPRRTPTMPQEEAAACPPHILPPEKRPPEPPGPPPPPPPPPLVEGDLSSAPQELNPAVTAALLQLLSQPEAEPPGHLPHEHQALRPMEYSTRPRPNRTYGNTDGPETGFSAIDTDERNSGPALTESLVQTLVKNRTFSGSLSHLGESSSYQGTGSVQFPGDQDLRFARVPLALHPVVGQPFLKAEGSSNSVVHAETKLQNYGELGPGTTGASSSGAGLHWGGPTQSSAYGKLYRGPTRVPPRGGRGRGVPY
T1 sequence (O75909 whole entry partner): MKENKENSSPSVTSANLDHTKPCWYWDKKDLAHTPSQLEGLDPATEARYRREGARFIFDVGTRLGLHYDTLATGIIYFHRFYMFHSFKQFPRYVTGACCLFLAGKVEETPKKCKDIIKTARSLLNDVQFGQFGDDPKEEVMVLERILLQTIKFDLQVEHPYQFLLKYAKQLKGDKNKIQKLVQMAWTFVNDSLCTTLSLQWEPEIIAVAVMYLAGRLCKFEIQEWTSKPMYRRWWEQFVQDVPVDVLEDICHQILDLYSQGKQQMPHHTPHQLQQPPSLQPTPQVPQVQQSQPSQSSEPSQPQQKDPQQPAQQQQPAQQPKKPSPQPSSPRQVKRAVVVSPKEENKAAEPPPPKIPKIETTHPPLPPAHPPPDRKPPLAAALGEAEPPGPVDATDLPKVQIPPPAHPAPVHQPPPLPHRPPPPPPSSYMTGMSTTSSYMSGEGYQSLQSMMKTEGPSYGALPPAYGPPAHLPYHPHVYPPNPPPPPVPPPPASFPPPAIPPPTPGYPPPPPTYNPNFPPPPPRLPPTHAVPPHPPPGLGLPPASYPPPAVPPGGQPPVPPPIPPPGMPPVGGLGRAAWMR

The experiment concerns the target T1, CDK12 (Homo sapiens, UniProt Q9NYV4).
T1 construct: ProQinase (named as the party running the assay)
Briefly: Radiometric protein kinase assay (33PanQinase), assay condition 1, thiol-free conditions. The settings on record: thiol-free conditions (1 mM TCEP), ATP at apparent Km. Format: biochemical. Here is the method:
Example 2 —Assay condition 1 (thiol-free conditions)
The IC50 profile of compounds was determined using protein kinase in a customized, thiol free assay. IC50 values were measured by testing 10 concentrations (1×10^−05 M to 3×10^−10 M) of each test compound in singlicate against each kinase of interest. Prior to testing, the 1×10^−03M stock solutions in column 2 of the master plates were subjected to a serial, semi-logarithmic dilution using 100% DMSO as a solvent. […] Column 1 and 7 were filled with 100% DMSO as controls. Subsequently, 2×10 microliter from each well of the serial diluted copy plates were aliquoted with a 96 channel pipettor into two identical sets of “compound dilution plates”. All plates were barcoded for automated identification and tracking purposes. IC50 values were measured by testing 10 concentrations (1×10^−05 M to 3×10^−10 M) of each compound in singlicate. All compounds were stored as powder until being solubilized in DMSO. Solubilized compounds were stored as 1×10^−02 M/100% DMSO stock solutions. Prior to the assay process, 90 microliters of H2O were added to each well of a set of compound dilution plates. To minimize potential precipitation, the H2O was added to each plate only a few minutes before the transfer of the compound solutions into the assay plates. Each plate was shaken thoroughly, resulting in compound dilution plates with a final of 10% DMSO. For each assay, 5 microliters of solution from each well of the compound dilution plates/10% DMSO were transferred into the assay plate. The final volume of the assay was 50 μl. All compounds were tested at 10 final assay concentrations in the range from 1×10^−05 M to 3×10^−10 M, in singlicate. The final DMSO concentration in the reaction cocktails was 1% in all cases. A radiometric protein kinase assay (33PanQinase® Activity Assay) was used for measuring the kinase activity of the protein kinase. All kinase assays were performed in 96-well FlashPlates™ from PerkinElmer (Boston, Mass., USA) in a 50 microliter reaction volume. The reaction cocktail was pipetted in four steps in the following order: 20 microliter of assay buffer (standard buffer) 5 microliter of ATP solution (in H2O) 5 microliter of test compound (in 10% DMSO) 20 microliter enzyme/subtrate mix. Each assay for the protein kinase contained 70 mM HEPES-NaOH pH 7.5, 3 mM MgCl2, 3 mM MnCl2, 3 microM Na-orthovanadate, 1 mM TCEP, 50 μg/ml PEG20000, ATP (corresponding to the apparent ATP-Km of the kinase, see Table A), [gamma-33P]-ATP (approx. 6×10×E5 cpm per well), with the protein kinase and relevant substrate being used in pre-determined amounts, depending on the kinase in question. For all experiments labeled as “Thiol-free”, all glutathione was exchanged from protein preparations so as to be removed from the assay and final buffer conditions contained no thiol- containing reagents. This was done so there would be no interference with the key cysteines in the proteins of interest.
For data analysis, the median value of the counts in column 1 (n=8) of each assay plate was defined as “low control”. This value reflects unspecific binding of radioactivity to the plate in the absence of a protein kinase but in the presence of the substrate. The median value of the counts in column 7 of each assay plate (n=8) was taken as the “high control”, i.e. full activity in the absence of any inhibitor. The difference between high and low control was taken as 100% activity. As part of the data evaluation the low control value from a particular plate was subtracted from the high control value as well as from all 80 “compound values” of the corresponding plate. The residual activity (in %) for each well of a particular plate was calculated by using the following formula:
Res. Activity (%)=100×[(cpm of compound−low control)/(high control−low control)] […]
In the case of `C=CC(=O)Nc1ccc2c(N3CC[C@@H](Nc4ncc5cc(F)ccc5n4)C3)ncnc2c1` [Example 8, (R)-N-(4-(3-((6-fluoroquinazolin-2-yl)amino)pyrrolidin-1-yl)quinazolin-7-yl)acrylamide], the IC50 was not above 100 nM.

With `C#Cc1cnc(N[C@@H]2CCN(c3nccc4cc(N(C)C(=O)C=C)ccc34)C2)nc1` [Example 44, (R)—N-(1-(3-((5-ethynylpyrimidin-2-yl)amino)pyrrolidin-1-yl)isoquinolin-6-yl)-N-methylacrylamide], the 50% inhibitory concentration (IC50) is not above 100 nM.

Consider `C=CC(=O)Nc1ccc2c(N3CC[C@@H](Nc4cc5c(cn4)cnn5CC)C3)ncnc2c1` [Example 34, (R)—N-(4-(3-((1-ethyl-1H-pyrazolo[4,3-c]pyridin-6-yl)amino)pyrrolidin-1-yl)quinazolin-7-yl)acrylamide], for which the half-inhibitory concentration (IC50) was not above 100 nM.

`C=CC(=O)Nc1ccc2c(N3CC[C@@H](Nc4ncc(Cl)c(OC)n4)C3)ncnc2c1` [Example 4, (R)-N-(4-(3-((5-chloro-4-methoxypyrimidin-2-yl)amino)pyrrolidin-1-yl)quinazolin-7-yl)acrylamide]: the IC50 was not above 100 nM.

As to `C=CC(=O)Nc1ccc2c(N3CC[C@@H](Nc4ncc(C5CC5)cn4)C3)ncnc2c1` [Example 10, (R)-N-(4-(3-((5-cyclopropylpyrimidin-2-yl)amino)pyrrolidin-1-yl)quinazolin-7-yl)acrylamide], the IC50 was not above 100 nM.

As to `C#Cc1cnc(N[C@@H]2CCN(c3nccc4cc(NC(=O)C=C)ccc34)C2)nc1` [Example 48, (R)—N-(1-(3-((5-ethynylpyrimidin-2-yl)amino)pyrrolidin-1-yl)isoquinolin-6-yl)acrylamide], the IC50 is not above 100 nM.

In the case of `C=CC(=O)Nc1ccc2c(N3CC[C@@H](Nc4ncc(C#N)cn4)C3)ncnc2c1` [Example 12, (R)-N-(4-(3-((5-cyanopyrimidin-2-yl)amino)pyrrolidin-1-yl)quinazolin-7-yl)acrylamide], the concentration for half-maximal inhibition (IC50) is not above 100 nM.

For the molecule `C=CC(=O)Nc1ccc2c(N3CC[C@@H](Nc4ncc(C#N)cn4)C3)nc(N3CCN(C)CC3)nc2c1` [Example 24, (R)-N-(4-(3-((5-cyanopyrimidin-2-yl)amino)pyrrolidin-1-yl)-2-(4-methylpiperazin-1-yl)quinazolin-7-yl)acrylamide], the concentration for half-maximal inhibition (IC50) was not above 100 nM.

`C=CC(=O)Nc1ccc2c(N3CC[C@@H](Nc4ncc(C(F)(F)F)cn4)C3)ncnc2c1` [Example 2, (R)-N-(4-(3-((5-(trifluoromethyl)pyrimidin-2-yl)amino)pyrrolidin-1-yl)quinazolin-7-yl)acrylamide]: the IC50 was not above 100 nM.

Regarding `C=CC(=O)Nc1ccc2c(N3CC[C@@H](Nc4ncc(Cl)c(OCC)n4)C3)nccc2c1` [Example 19, (R)-N-(1-(3-((5-chloro-4-ethoxypyrimidin-2-yl)amino)pyrrolidin-1-yl)isoquinolin-6-yl)acrylamide], the half-inhibitory concentration (IC50) was not above 100 nM.

In the case of `C=CC(=O)Nc1ccc2c(N3CC[C@@H](Nc4ncc5ccccc5n4)C3)ncnc2c1` [Example 13, (R)-N-(4-(3-(quinazolin-2-ylamino)pyrrolidin-1-yl)quinazolin-7-yl)acrylamide], the IC50 is not above 100 nM.

Regarding `C=CC(=O)Nc1ccc2c(N3CC[C@@H](Nc4ncc(C#N)cn4)C3)nncc2c1` [Example 49, (R)—N-(1-(3-((5-cyanopyrimidin-2-yl)amino)pyrrolidin-1-yl)phthalazin-6-yl)acrylamide], the IC50 is not above 100 nM.

In the case of `C=CC(=O)Nc1ccc2c(N3CC[C@@H](Nc4ncc(Cl)c(Oc5ccccc5)n4)C3)ncnc2c1` [Example 7, (R)-N-(4-(3-((5-chloro-4-phenoxypyrimidin-2-yl)amino)pyrrolidin-1-yl)quinazolin-7-yl)acrylamide], the IC50 fell in the range of 100 to 1000 nM.

As to `C=CC(=O)Nc1ccc2c(N3CC[C@@H](Nc4ncc5ccncc5n4)C3)ncnc2c1` [Example 16, (R)-N-(4-(3-(pyrido [3,4-d]pyrimidin-2-ylamino)pyrrolidin-1-yl)quinazolin-7-yl)acrylamide], the IC50 is not above 100 nM.

In the case of `C#Cc1cnc(N[C@@H]2CCN(c3nccc4cc(NC(=O)C=C)ccc34)C2)nn1` [Example 47, (R)—N-(1-(3-((6-ethynyl-1,2,4-triazin-3-yl)amino)pyrrolidin-1-yl)isoquinolin-6-yl)acrylamide], the IC50 is not above 100 nM.

Take `C=CC(=O)Nc1ccc2c(N3CC[C@@H](Nc4ncc(C#N)cn4)C3)nnc(N3CCC3)c2c1` [Example 45, (R)—N-(4-(azetidin-1-yl)-1-(3-((5-cyanopyrimidin-2-yl)amino)pyrrolidin-1-yl)phthalazin-6-yl)acrylamide formate]: the 50% inhibitory concentration (IC50) is not above 100 nM.

As to `C=CC(=O)Nc1ccc2c(N3CC[C@@H](Nc4ncc(C#N)cn4)C3)nccc2c1` [Example 26, (R)-N-(1-(3-((5-cyanopyrimidin-2-yl)amino)pyrrolidin-1-yl)isoquinolin-6-yl)acrylamide], the 50% inhibitory concentration (IC50) was not above 100 nM.

With `C=CC(=O)Nc1ccc2c(N3CC[C@@H](Nc4ncc(C#N)cn4)C3)nc(N3CCCC3)nc2c1` [Example 29, (R)—N-(4-(3-((5-cyanopyrimidin-2-yl)amino)pyrrolidin-1-yl)-2-(pyrrolidin-1-yl)quinazolin-7-yl)acrylamide], the 50% inhibitory concentration (IC50) lay within 100 to 1000 nM.

Regarding `C=CC(=O)N(C)c1ccc2c(N3CC[C@@H](Nc4ncc(Br)cn4)C3)nc(N3CCN(C)CC3)nc2c1` [Example 43, (R)—N-(4-(3-((5-bromopyrimidin-2-yl)amino)pyrrolidin-1-yl)-2-(4-methylpiperazin-1-yl)quinazolin-7-yl)-N-methylacrylamide], the IC50 is not above 100 nM.

Take `C=CC(=O)N(C)c1ccc2c(N3CC[C@@H](Nc4ncc(Br)cn4)C3)nccc2c1` [Example 27, (R)-N-(1-(3-((5-bromopyrimidin-2-yl)amino)pyrrolidin-1-yl)isoquinolin-6-yl)-N-methylacrylamide]: the IC50 was not above 100 nM.

Consider `C=CC(=O)Nc1ccc2c(N3CC[C@@H](Nc4ncc(Br)cn4)C3)nc(N3CCOCC3)nc2c1` [Example 20, (R)-N-(4-(3-((5-bromopyrimidin-2-yl)amino)pyrrolidin-1-yl)-2-morpholinoquinazolin-7-yl)acrylamide], for which the IC50 was not above 100 nM.

Consider `C/C=C/C(=O)Nc1ccc2c(N3CC[C@@H](Nc4ncc(Br)cn4)C3)nccc2c1` [Example 28, (R,E)-N-(1-(3-((5-bromopyrimidin-2-yl)amino)pyrrolidin-1-yl)isoquinolin-6-yl)but-2-enamide], for which the half-maximal inhibitory concentration (IC50) is not above 100 nM.

With `C=CC(=O)Nc1ccc2c(N3CC[C@@H](Nc4ncc(C#N)cn4)C3)nc(N)nc2c1` [Example 31, (R)—N-(2-amino-4-(3-((5-cyanopyrimidin-2-yl)amino)pyrrolidin-1-yl)quinazolin-7-yl)acrylamide], the half-maximal inhibitory concentration (IC50) is not above 100 nM.

With `C=CC(=O)Nc1ccc2c(N3CC[C@@H](Nc4ncc(Br)cn4)C3)nccc2c1` [Example 18, (R)-N-(1-(3-((5-bromopyrimidin-2-yl)amino)pyrrolidin-1-yl)isoquinolin-6-yl)acrylamide], the IC50 is not above 100 nM.

With `C=CC(=O)Nc1ccc2c(N3CC[C@@H](Nc4ncc(Br)cn4)C3)nc(C)nc2c1` [Example 21, (R)-N-(4-(3-((5-bromopyrimidin-2-yl)amino)pyrrolidin-1-yl)-2-methylquinazolin-7-yl)acrylamide], the IC50 was not above 100 nM.

`C=CC(=O)Nc1ccc2c(N3CC[C@@H](Nc4ncc(Cl)c(OCC)n4)C3)ncnc2c1` [Example 3, (R)-N-(4-(3-((5-chloro-4-ethoxypyrimidin-2-yl)amino)pyrrolidin-1-yl)quinazolin-7-yl)acrylamide]: the 50% inhibitory concentration (IC50) is not above 100 nM.

For `C=CC(=O)Nc1ccc2c(N3CC[C@@H](Nc4ncc(Br)cn4)C3)ncnc2c1` [Example 25, (R)-N-(4-(3-((5-bromopyrimidin-2-yl)amino)pyrrolidin-1-yl)quinazolin-7-yl)acrylamide], the concentration for half-maximal inhibition (IC50) was not above 100 nM.
